Results reported in US20250170246A1 (priority 2022, published 2025).
“Also recorded” adds a separate entry of the source.

Legend:
influenza = assay: Antiviral effect against influenza
[1] = cited from earlier work
[2] = ultimately excreted in expired CO2 and via urine; cited from earlier work
[3] = administered parenterally; cited from earlier work
[4] = multiple human clinical trials; cited from earlier work
SARS CoV-2 (WA1 strain) [5] = assay: SARS CoV-2-infected human precision-cut lung slices, IL-8 in culture supernatants; assay type: cell-based; details: 100 μM CDP-choline added daily, 4×10^5 TCID50 SARS CoV-2 WA1, 2 and 3 dpi, vs. saline
Source text: CDP-choline reduces SARS CoV-2-induced inflammation in vitro.

SARS CoV-2 (WA1 strain) [6] = assay type: in vivo, K18-hACE2-Tg mice
[7] = male K18-hACE2-Tg mice, 5 mg/kg i.p. daily, 4 dpi, relative to infected saline-treated mice
[8] = male K18-hACE2-Tg mice, 10^5 TCID50 SARS CoV-2 WA1, 5 mg/kg i.p. daily 1-3 dpi, read at 4 dpi

For `C[N+](C)(C)CCOP(=O)(O)OP(=O)(O)OC[C@H]1O[C@@H](n2ccc(N)nc2=O)C(O)C1O` (stereo partly shown) [CDP-choline, Cytidine diphosphate-choline], the “antiviral effect against influenza” value (influenza) is listed as “no such antiviral effect”, the aqueous solubility [1] is listed as “high” and the “metabolism of CDP-choline not incorporated into phospholipids” value [2] is listed as “rapidly metabolized into cytidine and choline”. For the same compound, the bioavailability [3] was “excellent”, the “safety in human clinical trials” value [4] was “safe” and the “production of IL-8 by SARS CoV-2-infected human precision-cut lung slices” value (SARS CoV-2 (WA1 strain) [5]) was “reduced production; also recorded: significantly reduced; also recorded: attenuated”. For the same compound, the “reduction of whole lung ccl-3/mip-1a gene expression” value (SARS CoV-2 (WA1 strain) [6]; CoV-2-infected male K18-hACE2-Tg mice) was over 5 fold, the “reduction of whole lung il-6 gene expression” value (SARS CoV-2 (WA1 strain) [6]; [7]) was over 5 fold and the “reduction of whole lung kc/cxcl-1 gene expression” value (SARS CoV-2 (WA1 strain) [6]; [7]) was over 5 fold. The “SARS CoV-2 replication in the lungs (in words)” value (SARS CoV-2 (WA1 strain) [6]; male K18-hACE2-Tg mice, 5 mg/kg i.p. daily, 4 dpi, vs. saline, 5 mg/kg) was “significantly reduces; also recorded: significantly decreased”, the “SARS CoV-2-induced bradycardia (heart rate)” value (SARS CoV-2 (WA1 strain) [6]; [8]) was “prevents development; also recorded: completely prevented; also recorded: attenuated” and the “SARS CoV-2-induced hypoxemia (carotid arterial % O2 saturation, SaO2)” value (SARS CoV-2 (WA1 strain) [6]; [8]) was “prevents development; also recorded: completely prevented; also recorded: reversed”. The “reduction of viral replication” value (SARS CoV-2 (WA1 strain) [6]; male K18-hACE2-Tg mice, daily post-infection CDP-choline) was 0.5 logs.
